Source: patent publication US6261760A, “Regulation of the cell cycle by sterols” (priority 1999, dated 2001)
Entries after “also recorded” stand apart in the source; their conditions may differ. Like-named read-outs stand apart in the source and are kept apart here. *1 amine or outer side, *2 acyl side, *3 side chain or, on linkers, in order; H or OH if unused. Where a SMILES comes first, the peptide text is derived from it. Bridges are numbered along the chain shown (N, C = ends). Roman numbers before positions name the chains, in order. [ ]: non-standard residue; d: D form. Actinocin(9to1) = Cc1c2oc3c(C)ccc(C(=O)[*:1])c3nc-2c(C(=O)[*:2])c(N)c1=O; NMeV = CN[C@H](C(=O)O)C(C)C; Nle = CCCC[C@H](N)C(=O)O; Sar = CNCC(=O)O

How the values were obtained:
[1] = tested on: intracellular FC transport to the cell surface in fibroblast monolayers; assay: Transfer of intracellular 3H-FC to the cell surface (cholesterol oxidase); format: cell-based, human; conditions: in words
Description: This assay utilized the finding (see Example 1) that only FC in the caveolar fraction of the plasma membrane fraction was modified by cholesterol oxidase in unfixed fibroblast monolayers.
The rate at which intracellular LDL-derived ^3 H-FC became accessible at the cell surface was measured as follows. Cell monolayers were labeled with ^3 H-FC LDL under the conditions shown for each experiment. Unbound and adsorbed LDL were removed as described above. In some experiments metabolic inhibitors of different transport steps were then added for 30 min at 15° C. […] Cholesterol oxidase (Boehringer-Manheim, Indianapolis, Ind., USA) was added in PBS to a final concentration of 1 U ml^-1. Incubation was for 4 h at 0° C. The cells were washed with ice-cold PBS, and extracted with 0.1 N NAOH. Cell total lipid was extracted with chloroform-methanol (1:1 v/v). […] .
Fibroblast monolayers were prelabeled with FC-labeled LDL for 2 min at 31° C. Medium and surface-bound labeled LDL were removed as described above. The cells were incubated with inhibitors of intracellular transport for 30 min at 15° C. Movement of FC label to the cell surface remained negligible (FIG. 11). The cells were brought to 31° C. for 15 min, and then cooled on wet ice. ^3 H-FC transfer to the cell surface (in the presence and absence of inhibitor) was assayed with cholesterol oxidase as described above.

[2] = tested on: LDL FC uptake by fibroblast monolayers; assay: Transfer of LDL-derived 3H-FC into fibroblast monolayers with metabolic inhibitors (Example 2); format: cell-based, human; design: Emax: dose or concentration left out as unconfirmed; conditions: for effect on uptake of 3H-FC from LDL: brefeldin A, vinblastine, taxol, nocodazole, NEM 2 mM; for inhibition at higher concentration: 100 mM (monensin: up to 100 mM)
[3] = tested on: LDL FC uptake by fibroblast monolayers
fibroblasts = conditions: cited from earlier work
caveolin mRNA = assay: Caveolin mRNA levels (Northern blot)
[4] = tested on: LDL FC uptake by fibroblast monolayers; assay: Effects of metabolic inhibitors on uptake of 3H-cholesterol from LDL (Example 1); conditions: for effect on LDL FC uptake: in words
[5] = tested on: LDL-receptor deficient cells (GM 2000 line); assay: FC transfer from LDL to LDL receptor-deficient cells (GM 2000); format: cell-based
fibroblast monolayers = assay: FC efflux from fibroblast monolayers (3H-FC label); format: cell-based, human; conditions: in words
Description: Fibroblast monolayers were equilibrated with ^3 H-FC-labeled native plasma or with isolated ^3 H-labeled LDL, as specified for each experiment. Following incubation, the dishes were washed with albumin-complete PBS and then (×4) with complete PBS. They were then incubated for 3 min with unlabeled plasma or lipoprotein fractions and the rate of appearance of radioactivity in the medium determined. Samples of medium ([…]) were immediately chilled in ice water and centrifuged (10 min, 2000×g) at 0-2° C. ^3 H-cholesterol radioactivity in the supernatant was either assayed directly, or fractionated by agarose gel electrophoresis. FC efflux was linear as previously reported (Kawano et al., Biochemistry, 32: 5025-5028 (1993)).
For electrophoresis, […] portions of labeled medium were added to strips of 0.75% w/v agarose in 0.025 M barbital buffer (pH 8.6) and separated as previously described (Fielding et al., Biochemistry, 30: 8551-8557 (1991)). 2.5 mm gel fractions were then collected, and radioactivity measured. The location of major lipoprotein classes was determined from strips run simultaneously with whole native plasma equilibrated (60 min, 37° C.) With ^3 HFC.
Rates of FC influx and efflux between medium and fibroblast monolayers preincubated for 24 h with 7-80% native human plasma in DMEM were determined. Cells equilibrated in 80% compared to 7% v/v plasma contained 35-40% more total cholesterol but only 10-15% more FC. In 50% v/v plasma, cholesteryl ester levels were lower than in 80% plasma but FC levels were almost the same. Rates of transfer of FC between the cells and their extracellular medium were determined for each plasma dilution. […] was measured as the rate of transfer of ^3 H-FC radioactivity from labeled native plasma to unlabeled cells. […] was determined as the rate of transfer of radioactivity from uniformly labeled cells to unlabeled native plasma medium.

[6] = tested on: normal human skin fibroblasts; assay: Cell synchronization by aphidicolin (flow cytometry); format: cell-based
Description: Normal human skin fibroblasts were cultured in 10% fetal calf serum in Dulbecco's modified Eagles medium (DMEM). […] After 3 days, dishes were incubated with aphidicolin (4 μg/ml)(CalBiochem, San Diego, Calif.) to inhibit DNA polymerase, leading to cell arrest immediately before S-phase (Tobey et al. (1988) Expt. Cell Res. […]). After 24 h incubation with aphidicolin, the inhibitor was removed for a further 12 h, then restored for a `double block` at 8 μg/ml for a further 24 h (Sourlingas et al. (1996) Anal. Biochem. 234:104-107). After final removal from inhibitor into 10% serum-DME medium, the cells during incubation over the next 32 h at 37° C. […]
After 3 days, dishes were incubated with aphidicolin (4 μg/ml)(CalBiochem, San Diego, Calif.) to inhibit DNA polymerase, leading to cell arrest immediately prior to DNA synthesis (S-phase) (Tobey et al. (1988) Exptl. Cell Res. 179: 400-416, Sourlingas and Sekeri-Pataryas (1996) Anal. Biochem. 234: 104-107.). […] Cell synchronization was assessed by flow cytometry using the cell permeable stain Hoechst 33342 (Molecular Probes, Eugene, Oreg.)(Haas-Kogan et al. (1995) EMBO J. 14: 461-472.). […] Samples were analysed on a FACStar Plus (Becton Dickinson, San Jose, Calif.). Data was analysed using Lysis II software (Becton Dickinson). […]

CC[C@]1(O)C[C@@H]2CN(CCc3c([nH]c4ccccc34)[C@@](C(=O)OC)(c3cc4c(cc3OC)N(C)[C@H]3[C@@](O)(C(=O)OC)[C@H](OC(C)=O)[C@]5(CC)C=CCN6CC[C@]43[C@@H]65)C2)C1 [Vinblastine]
effect on transport of intracellular 3H-FC to the cell surface [1]: unaffected | effect on uptake of 3H-FC from LDL [2]: without effect

COC(=O)Nc1nc2ccc(C(=O)c3cccs3)cc2[nH]1 [Nocodazole]
effect on transport of intracellular 3H-FC to the cell surface [1]: reduced | effect on uptake of 3H-FC from LDL [2]: without effect

C[C@H]1CCC/C=C/[C@@H]2C[C@H](O)C[C@H]2[C@H](O)/C=C/C(=O)O1 [Brefeldin A]
effect on transport of intracellular 3H-FC to the cell surface [1]: unaffected | effect on uptake of 3H-FC from LDL [2]: without effect

CC(C)Cn1c(=O)n(C)c(=O)c2[nH]cnc21 [IBMX, isobutyl methylxanthine]
activity ([3]; fibroblast monolayers, 60 min): 111% | effect on LDL FC uptake ([3]; in words): no effect | effect on transfer of newly-synthesized cholesterol to plasma membrane (fibroblasts): stimulated

CCCC[C@@H](C=O)NC(=O)[C@H](CC(C)C)NC(=O)[C@H](CC(C)C)NC(C)=O [ALLN] (Ac-Leu-Leu-[Nle]-aldehyde)
effect on caveolin mRNA levels / caveolin gene expression (caveolin mRNA; 25 μM ALLN, 7% or 80% v/v plasma): superinhibited caveolin mRNA levels regardless of LDL-FC; also recorded: superinhibited the expression of the caveolin gene; also recorded: strongly inhibited caveolin mRNA levels even below the level expressed in cells equilibrated in 7% v/v plasma; also recorded: completely prevented the activation of caveolin mRNA levels observed in 80% v/v plasma

CC(=O)O[C@H]1C(=O)[C@@]2(C)[C@H]([C@H](OC(=O)c3ccccc3)[C@]3(O)C[C@H](OC(=O)[C@H](O)[C@@H](NC(=O)c4ccccc4)c4ccccc4)C(C)=C1C3(C)C)[C@]1(OC(C)=O)CO[C@@H]1C[C@@H]2O [taxol]
effect on uptake of 3H-FC from LDL [2]: without effect

COC1=CC(C)=CC(C)C(O)C(C)CC(C)=CC=CC(OC)C(C(C)C(O)C(C)C2(O)CC(O)C(C)C(C(C)C)O2)OC1=O (single isomer, unassigned) [Bafilomycin A1]
Emax ([2]; Homo sapiens, Fibroblast, read-out: maximal effect on LDL-FC uptake): 30%

heparin
inhibition of LDL FC influx ([4]; normal fibroblasts, 0.1 mg/ml heparin, LDL 150 Fg FC ml^-1, 10 min): Approximately 80% | inhibition of LDL FC influx ([5]; GM 2000 cells, 0.1 mg/ml heparin, LDL 150 Fg FC ml^-1, 10 min): Approximately 80%

Cc1c2oc3c(C)ccc(C(=O)N[C@@H]4C(=O)N[C@H](C(C)C)C(=O)N5CCC[C@H]5C(=O)N(C)CC(=O)N(C)[C@@H](C(C)C)C(=O)O[C@@H]4C)c3nc-2c(C(=O)N[C@@H]2C(=O)N[C@H](C(C)C)C(=O)N3CCC[C@H]3C(=O)N(C)CC(=O)N(C)[C@@H](C(C)C)C(=O)O[C@@H]2C)c(N)c1=O [actinomycin, actinomycin D] (I: T[dV]P[Sar][NMeV] / II: T[dV]P[Sar][NMeV]; ester I:1-I:C, II:1-II:C; linker I:N-II:N via Actinocin(9to1))
t1/2 of decrease in caveolin mRNA levels (caveolin mRNA; actinomycin 2.5 μg ml^-1, activated and baseline cells, n=4): 8.0 ± 1 h | caveolin mRNA level relative to total RNA (caveolin mRNA; baseline cells, 8 h with actinomycin, 37° C.): 0.52

[N-]=[N+]=[N-].[Na+] [Na-azide]
effect on LDL FC uptake [4]: without effect

O=[N+]([O-])[O-].[K+] [KNO3]
effect on transport of intracellular 3H-FC to the cell surface [1]: inhibited the return of FC to the cell surface, but less effectively than did nocodazole | inhibition of the uptake of free cholesterol from LDLs ([4]; FIG. 8): > 80% | time course of inhibition of LDL FC uptake ([4]; NEM: first 10-15 min, KNO3: 50 mM, data not shown): comparable time course | initial rate of efflux of FC from prelabeled cells to plasma (fibroblast monolayers): increased several-fold

CCN(CC)CCCC(C)Nc1ccnc2cc(Cl)ccc12 (stereo not shown) [Chloroquine]
effect on LDL FC uptake [4]: no effect

C[C@@]1(CO)[C@H](O)CC[C@@]2(C)[C@H]1CC[C@H]1C[C@@H]3C[C@@]12CC[C@]3(O)CO [aphidicolin]
cells synchronized to enter S-phase ([6]; Example 4, following removal of inhibitor): ~ 85% | cells in synchrony at the beginning of S phase ([6]; Example 5, 4 then 8 μg/ml aphidicolin): 83.9±3.1%

CC[C@@]1([C@@H]2O[C@@H]([C@H]3O[C@@](O)(CO)[C@H](C)C[C@@H]3C)C[C@@H]2C)CC[C@H]([C@]2(C)CC[C@]3(C[C@H](O)[C@@H](C)[C@@H]([C@@H](C)[C@@H](OC)[C@H](C)C(=O)O)O3)O2)O1 [Monensin]
inhibition at higher concentration [2]: no increase in inhibition | effect on uptake of 3H-FC from LDL [2]: effective in reducing the selective uptake of FC from LDL | effect on selective uptake of FC from LDL in GM2000 cells ([5]; in words): Comparable results

[NH4+].[O]=[V](=[O])[O-] [NH4 -vanadate]
effect on LDL FC uptake [4]: without effect

C=C1C(C)C2C(Cc3ccccc3)NC(=O)C23C(OC(C)=O)/C=C/C(C)(O)C(=O)C(C)CC=CC3C1O (stereo not shown) [Cytochalasin D]
effect on transport of intracellular 3H-FC to the cell surface [1]: no effect | inhibition at higher concentration ([2]; listed as Cytochalasin): No greater inhibition | inhibition at higher concentration ([2]; listed as cytochalasin D): no increase in inhibition
